Results: patent publication US10342697B2, “Systems and methods for delivering drugs to an eye” (Avedro, Inc., priority 2016, dated 2019)
Entries after “also recorded” stand apart in the source; their conditions may differ.

What was measured:
[1] = tested on: pig eyes with intact epithelium; test: Relative fluorescence F/Fo of cross-linked corneal flaps, Polidocanol vs BAC riboflavin solutions (Study 4); settings: 20 min soak, 30 mW/cm^2, FIGS. 7-15
Protocol: The epitheliums of eyes in Group A were removed with a dull blade after the eyes were soaked in one of the solutions and irradiated pan-corneally on air with a top hat beam (3% root mean square) for 4 minutes with 365-nm light source (UV LED NCSU033B[T]; Nichia Co., Tokushima, Japan) at a chosen irradiance of 30 mW/cm^2 which was measured with a power sensor (model PD-300-UV; Ophir, Inc., Jerusalem, Israel) at the corneal surface. Corneal flaps (approximately 200 μm thick) were excised from the eyes with aid of an Intralase femtosecond laser (Abbot Medical Optics, Santa Ana, Calif.). The average thickness of the corneal flaps was calculated as a difference between the measurements before and after the excision from the eyes with an ultrasonic Pachymeter (DGH Technology, Exton, Pa.). The flaps were washed with distilled water and dried in a vacuum until the weight change became less than 10% (Rotary vane vacuum pump RV3 A652-01-903, BOC Edwards, West Sussex, UK). […] Papain digests were diluted 0.5 times with 1×BBBS and fluorescence of the solutions was measured with excitation of 360 nm in a QM-40 Spectrofluorometer (Photon Technology Int., London, Ontario, Canada). The fluorescence of the papain buffer was taken into account by measuring fluorescence in the absence of tissue and subtracting this value from the fluorescence of the samples. […]

[2] = tested on: epithelium; test: Corrosiveness/damage to the epithelium; settings: compared with BAC

For “Polyoxyethylene (9) lauryl ether [Polidocanol]”, the “enhancing permeability in the epithelium and generating cross-linking activity” value [1] was “more effective than many other surfactants; also recorded: far more effective and efficient than BAC” and the “corrosive and damaging to the epithelium” value [2] was “less corrosive and damaging to the epithelium than BAC”.
